Measured values as given in paper PMC11683478, “Bioprospecting of culturable marine biofilm bacteria for novel antimicrobial peptides” (iMeta, 2024).

Assays:
Test in all cases: Antibacterial screen at 200 μg/mL (cell density vs control)
Type in all cases: cell-based
Details in all cases: peptide 200 μg/mL, CAMHB, 5 × 10^5 CFU/mL, 37°C, 12 h, OD600; control (no AMP) = 1; three biological replicates
[1] = system: Bacillus subtilis ATCC 23857
Method: (§1) Eight bacterial strains were utilized in the antibacterial experiment. S. aureus ATCC 12600, B. subtilis ATCC 23857, E. coli ATCC 11775, and A. baumannii ATCC 19606 were purchased from Shanghai Beinuo Biology. M. luteus ATCC 4698 and S. bongori ATCC43975 were purchased from Shanghai Beisi Biotechnology. V. owensii ems001 and V. alginolyticus xv22 from the intestines of diseased shrimps were isolated in our laboratory. All strains were cultured in the cation‐adjusted Mueller‐Hinton broth (CAMHB) at 37°C to the logarithmic growth phase (OD600 = 0.5). Then, bacteria were gradient‐diluted using fresh CAMHB to a bacterial density of 5 × 10^5 CFU/mL. Antibacterial experiments were performed in a 96‐well plate with 200 μg/mL final peptide concentration. Four experimental groups were set up, including a blank control (200 μL CAMHB), a negative control (180 μL CAMHB plus 20 μL peptide), a positive control (180 μL bacterial culture plus 20 μL ultrapure water), and an experimental group (180 μL bacterial culture plus 20 μL peptide). Three biological replicates were conducted for each group, and OD600 values were measured after incubation at 37°C for 12 h. Every observed value was removed from the blank control group value. The value of the experimental group was then subtracted from the value of the negative control group therefore eradicating the effect of the peptide on the OD measurement. Student's t‐test allowed the estimation of a notable variation between the experimental and positive groups using a p‐value of 0.05 as the limit. […] The MIC of a peptide against a bacterium was determined as the minimum peptide concentration at which there was no visible bacterial growth.

[2] = system: Vibrio alginolyticus xv22
Method: as §1

[3] = system: Micrococcus luteus ATCC 4698
Method: as §1

Vibrio owensii ems001 = system: Vibrio owensii ems001
Method: as §1

[4] = system: Escherichia coli ATCC 11775
Method: as §1

[5] = system: Staphylococcus aureus ATCC 12600
Method: as §1

[6] = system: Acinetobacter baumannii ATCC 19606
Method: as §1

[7] = system: Salmonella bongori ATCC 43975
Method: as §1

Sequence	cell density relative to control, B. subtilis ATCC 23857 [1]	cell density relative to control, V. alginolyticus xv22 [2]	cell density relative to control, M. luteus ATCC 4698 [3]	cell density relative to control, V. owensii ems001 (Vibrio owensii ems001)	cell density relative to control, E. coli ATCC 11775 [4]	cell density relative to control, S. aureus ATCC 12600 [5]	cell density relative to control, A. baumannii ATCC 19606 [6]	cell density relative to control, S. bongori ATCC 43975 [7]
MCTIRTCRRSRPHHCSTHC [Cand-101, chemically synthesized candidate AMP predicted from marine biofilm bacteria]	0	0	0.91	1	0.967	0.01	0.879	0.855
MCTRSCRPNLVKC [Cand-47, chemically synthesized candidate AMP predicted from marine biofilm bacteria]	1	1	1	1	1	1	0.895	0.835
MCTSKKKVWRCVAPS [Cand-33, chemically synthesized candidate AMP predicted from marine biofilm bacteria]	0.601	0.879	1	1	0.96	0.874	0.813	1
MFKFFCCIFYMCRIKTH [Cand-18, chemically synthesized candidate AMP predicted from marine biofilm bacteria]	0	0	0	0.007	0.004	0	0.014	0.031
MFSKLVKVLLKALCHVFMKCTFW [Cand-61, chemically synthesized candidate AMP predicted from marine biofilm bacteria]	0	1	1	0.001	1	0	0.884	0.633
MGAVCRMGSLPCLIPRGAIRLG [Cand-198, chemically synthesized candidate AMP predicted from marine biofilm bacteria]	1	0.891	1	0.904	0.844	0.817	0.765	0.827
MGPHWRGPRWGRVGCWNL [Cand-154, chemically synthesized candidate AMP predicted from marine biofilm bacteria]	0	0.077	0.814	0.004	0.622	0.038	1	0.544
MGRISCMWSSSYKCRFNCYF [Cand-20, chemically synthesized candidate AMP predicted from marine biofilm bacteria]	1	0.635	1	0.818	1	0.809	0.937	1
MGTYPKVGNSHWKR [Cand-69, chemically synthesized candidate AMP predicted from marine biofilm bacteria]	1	1	1	1	1	0.819	0.889	0.886
MICWCAKICCSCSAFRRWWKRNGTAC [Cand-57, chemically synthesized candidate AMP predicted from marine biofilm bacteria]	0	0	1	0.002	0.456	0	0.653	0.134
MIYICTRITKCKLHGGCSSVG [Cand-155, chemically synthesized candidate AMP predicted from marine biofilm bacteria]	0.99	1	1	0.77	1	0	1	1
MKALRRFLSCKVCSHALN [Cand-160, chemically synthesized candidate AMP predicted from marine biofilm bacteria]	0	0.001	0.638	0.442	0.406	0	0.001	0.072
MKGLSKCVTHVVTAA [Cand-115, chemically synthesized candidate AMP predicted from marine biofilm bacteria]	1	1	1	0.994	1	0.907	1	0.935
